The text below walks through data of the RepoRT retention time repository (doi:10.1021/acs.analchem.1c00972).

This series can be described thus: RP, Waters ACQUITY UPLC BEH C18, 100 × 1 mm, 1.7 µm, 50 °C, 0.3 mL/min, estimated dead time 0.17 min; A: water + 0.1% formic acid + 20 mM ammonium formate; B: methanol + 0.1% formic acid + 20 mM ammonium formate; gradient (min/%B) 0/0 15/100 21/100 22/0 30/0. The note with it: stereoisomer not certain.
On to `O=C1NC(=O)C(c2ccccc2)(c2ccccc2)N1` [Phenytoin], for which the LC retention time was 12 min.

Regarding `CC(C)(C)C(=O)C(Oc1ccc(Cl)cc1)n1cncn1` (stereo not given) [Triadimefon], the LC retention time is 14.5 min.

Take `CC(C=CC1=C(C)CCCC1(C)C)=CC=CC(C)=CC(=O)O` [9-cis-Retinoic acid]: the LC retention time is 16 min.

With `CC(Oc1ccc(Oc2ccc(Cl)cc2Cl)cc1)C(=O)O` (stereo not given) [Diclofop], the LC retention time was 14.3 min.

In the case of `CC(C)(C)NCC(O)c1ccc(O)c(CO)c1` (stereo not given) [Albuterol], the LC retention time was 6 min.

Take `CC(C)=NOCCOC(=O)C(C)Oc1ccc(Oc2cnc3cc(Cl)ccc3n2)cc1` (stereo not given) [Propaquizafop]: the LC retention time was 16.8 min.

Take `CCOC(=O)c1cn2nc(OP(=S)(OCC)OCC)cc2nc1C` [Pyrazophos]: the LC retention time was 15.9 min.

Take `Nc1ccc(S(=O)(=O)Nc2cnc3ccccc3n2)cc1` [Sulfachinoxalin]: the LC retention time was 14 min.

Regarding `CC(=O)OCC(=O)C1(O)CCC2C3CCC4=CC(=O)CCC4(C)C3C(O)CC21C` (stereo not given) [Hydrocortisonacetate], the LC retention time was 13.4 min.

For `O=C(O)/C=C/c1ccccc1` [trans-Cinnamic acid], the LC retention time was 9.9 min.

Turning to `Cc1cccc(C)c1N(Cn1cccn1)C(=O)CO` [Metazachlor-OH-deschloro], the LC retention time was 11.1 min.

Regarding `CCOP(=O)(OCC)Oc1cc(C)nc(C(C)C)n1` [Diazoxon / Diazinon-oxon], the LC retention time is 15.7 min.

As to `O=NNC1=NCCN1Cc1ccc(Cl)nc1` [Imidacloprid-nitrosoimine], the LC retention time is 7.84 min.

As to `COCC(C)N(C(=O)CS(=O)(=O)O)c1c(C)csc1C` (stereo not given) [Dimethenamid-M 27 (ESA)], the LC retention time is 10.8 min.

Regarding `Cc1cn(C2CC(N=[N+]=[N-])C(CO)O2)c(=O)[nH]c1=O` (stereo not given) [Zidovudine], the LC retention time was 8.04 min.

`CC(C)OC(=O)Nc1cccc(Cl)c1` [Chlorpropham]: the LC retention time is 14.4 min.

Turning to `COP(=O)(OC)OC1=C(Cl)C2C=CCC12` (stereo not given) [Heptenophos], the LC retention time is 13.3 min.

Turning to `Cc1ccccc1C(=O)Nc1cccc(OC(C)C)c1` [Mepronil], the LC retention time was 14.4 min.

As for `Cc1cc([N+](=O)[O-])c(N)c([N+](=O)[O-])c1C` [Pendimethalin-N-dealkylation], the LC retention time is 14.6 min.

Regarding `Nc1nc2ccccc2[nH]1` [2-Aminobenzimidazole], the LC retention time was 6.08 min.

Turning to `NCCc1ccc(O)cc1` [tyramine], the LC retention time is 2.5 min.

As to `O=C(O)c1cccnc1Oc1cccc(C(F)(F)F)c1` [Diflufenican-metabolite], the LC retention time is 13.2 min.

As to `c1ccc2scnc2c1` [Benzothiazole], the LC retention time was 10.8 min.

`COCCOCCOCCOC` [Triglyme]: the LC retention time was 8.28 min.

For `CCCCCCCCn1sc(Cl)c(Cl)c1=O` [DCOIT], the LC retention time was 17 min.

On to `CC(=O)OCC(=O)C1(O)C(C)CC2C3CCC4=CC(=O)C=CC4(C)C3(F)C(O)CC21C` (stereo not given) [Betamethasone-21-acetate], for which the LC retention time was 14.1 min.

As to `Oc1ccc(C(=C(Cl)Cl)c2ccc(O)cc2)cc1` [Bisphenol C-dichloride], the LC retention time is 10.5 min.

In the case of `COCCOC(=O)c1ccccc1C(=O)OCCOC` [Bis(2-methoxyethyl)phthalate], the LC retention time is 12.3 min.

Regarding `CC(C)(C)c1cc(-n2nc3ccccc3n2)c(O)c(C(C)(C)C)c1` [UV-320], the LC retention time was 19.8 min.

As to `Nc1nc(N)nc(-c2ccccc2)n1` [Benzoguanamine], the LC retention time is 7.87 min.

Regarding `NC(Cc1cnc[nH]1)C(=O)N1CCCC1C(=O)O` (stereo not given) [His-Pro], the LC retention time is 2.6 min.

With `CC1CCCCC1NC(=O)Nc1ccccc1` (stereo not given) [Siduron], the LC retention time was 13.9 min.

As for `O=C(O)c1ccc2ncsc2c1` [Benzothiazole-6-carbons<e4>ure], the LC retention time was 9.32 min.

As for `COc1cc(OC)n2nc(NS(=O)(=O)c3c(C(F)(F)F)ccnc3OC)nc2n1` [Pyroxsulam], the LC retention time was 11.7 min.

Consider `CNC(C)C(O)c1ccccc1` (stereo not given) [ephedrine], for which the LC retention time is 7.4 min.

Regarding `NC(Cc1c[nH]c2ccccc12)C(=O)O` (stereo not given) [tryptophan], the LC retention time was 6.3 min.

On to `CCCCOc1cc(C(=O)NCCN(CC)CC)c2ccccc2n1` [Dibucaine], for which the LC retention time is 13 min.

On to `Cc1ccccc1O` [2-Methylphenol], for which the LC retention time was 14.3 min.

Take `OC(c1ccc(Cl)cc1)(c1cncnc1)c1ccccc1Cl` (stereo not given) [Fenarimol]: the LC retention time is 14.9 min.

As to `CN1CCN(C)C1=O` [1,3-Dimethyl-2-imidazolidinone], the LC retention time was 6.1 min.

For the compound `CNC(=O)Oc1ccccc1C1OCCO1` [Dioxacarb], the LC retention time was 15.1 min.

As for `O=C(O)c1cccc(Oc2cccc(C(F)(F)F)c2)n1` [Picolinafen-OH-O-dealkylation], the LC retention time was 14 min.

Consider `CC1(C)CC(N)CC(C)(CN)C1` (stereo not given) [Isophorone diamine], for which the LC retention time is 2.02 min.

Take `COC(=O)c1ccccc1C(=O)OC` [Dimethylphthalat DMP]: the LC retention time was 11.2 min.

As to `Nc1ccc2nc3ccc(N)cc3nc2c1` [2,8-Diaminophenazine], the LC retention time was 8.24 min.

On to `O=P(OCC(Cl)CCl)(OCC(Cl)CCl)OCC(Cl)CCl` (stereo not given) [Tris(2,3-dichloropropyl) phosphate], for which the LC retention time was 15.6 min.

For the compound `CCOCCOC(=O)c1ccccc1C(=O)OCCOCC` [Bis(2-ethoxyethyl)phthalate], the LC retention time was 13.3 min.

Turning to `N#Cc1ccccc1C#N` [Phthalonitrile], the LC retention time is 8.45 min.

With `CC(=O)c1ccc2ccccc2c1` [2-Acetonaphthone], the LC retention time is 13.5 min.

For `O=C1NC(=O)c2ccccc21` [phthalimide], the LC retention time is 7.8 min.

Regarding `COc1cccc(CO)c1O` [2-Hydroxy-3-methoxybenzyl alcohol], the LC retention time is 9 min.

Turning to `CCCCCCCCCCCOC(=O)c1ccccc1C(=O)OCCCCCCCCCCC` [Diundecylphthalate], the LC retention time is 21 min.

In the case of `CCOc1cc(Oc2ccc(C(F)(F)F)cc2Cl)ccc1[N+](=O)[O-]` [Oxyfluorfen], the LC retention time was 16.8 min.

With `O=C(O)Cc1c[nH]c2ccc(O)cc12` [5-Hydroxyindole-3-acetic acid], the LC retention time is 6.7 min.

Turning to `CC1CC(O)C2(O)C13CC(OC(=O)C3O)C(C)(O)C21COC1=O` (stereo not given) [Anisatin], the LC retention time was 7.91 min.

For the compound `Cc1ccc(N=CN(C)C=Nc2ccc(C)cc2C)c(C)c1` [Amitraz], the LC retention time was 17.7 min.

Take `O=C(OC1CC2CCC(C1)[N+]21CCCC1)C(O)(c1ccccc1)c1ccccc1` (stereo not given) [Trospium]: the LC retention time is 14.2 min.

As to `C=CC1CNC(=S)O1` (stereo not given) [Goitrin], the LC retention time is 5 min.

Consider `Cc1c(N)c(=O)n(-c2ccccc2)n1C` [4-Aminoantipyrine], for which the LC retention time was 7.28 min.

For `CC(C)c1ccc(NC(N)=O)cc1` [1-(4-Isopropylphenyl)-Harnstoff], the LC retention time is 12.3 min.

As for `Cn1c(=O)c2[nH]c(=O)[nH]c2n(C)c1=O` [1,3-Dimethyluric acid], the LC retention time was 5.8 min.

Turning to `CCOc1ccc2ccccc2c1C(=O)NC1C(=O)N2C1SC(C)(C)C2C(=O)O` (stereo not given) [Nafcillin], the LC retention time is 13.6 min.

`N#Cc1ccccc1Oc1cc(=O)[nH]cn1` [Azoxystrobin-metabolite]: the LC retention time was 8.9 min.

With `O=C(O)CCCCCCC(=O)O` [Suberic_acid], the LC retention time was 9.6 min.

In the case of `NS(=O)(=O)c1ccc(-n2nc(C(F)(F)F)cc2-c2ccc(C(=O)O)cc2)cc1` [Celecoxib Carboxylic Acid], the LC retention time is 13.6 min.

Regarding `C=C1C(O)C2(O)OCC34C(CC5C(C)=CC(=O)C(O)C5(C)C23)OC(=O)CC14` (stereo not given) [Ailanthone], the LC retention time was 7.89 min.

Take `COCCCOc1cc(CC(CC(N)C(O)CC(C(=O)NCC(C)(C)C(N)=O)C(C)C)C(C)C)ccc1OC` (stereo not given) [Aliskiren]: the LC retention time was 13.6 min.

Turning to `O=C1CC[C@@H](C(=O)O)N1` [L-Pyroglutamic acid], the LC retention time was 7.7 min.

Take `O=C(O)c1ccccc1Nc1cccc(C(F)(F)F)c1` [Flufenamic acid]: the LC retention time was 16.2 min.

With `CCN(CC)CCOC(=O)C(Cc1cccc2ccccc12)CC1CCCO1` (stereo not given) [Nafronyl], the LC retention time was 16 min.

With `CCCCCCCCCCCC(CC1OC(=O)C1CCCCCC)OC(=O)C(CC(C)C)NC=O` (stereo not given) [Orlistat], the LC retention time was 19 min.

For `CCOP(=S)(OCC)Oc1nc(Cl)c(Cl)cc1Cl` [Chlorpyriphos-ethyl], the LC retention time was 17.1 min.

`Nc1ccc(Br)cc1` [4-Bromoaniline]: the LC retention time is 8.49 min.

Take `CCCCCCCCCC(=O)OC(CC(=O)[O-])C[N+](C)(C)C` [Decanoyl-L-Carnitine]: the LC retention time is 14.5 min.

Take `C#CCOc1ccc(CCNC(=O)C(OCC#C)c2ccc(Cl)cc2)cc1OC` (stereo not given) [Mandipropamid]: the LC retention time was 14.3 min.

As to `CCCCOCN(C(=O)CS(=O)(=O)O)c1c(CC)cccc1CC` [Butachlor ESA], the LC retention time was 14.5 min.

For the compound `O=C(NCCN1CCOCC1)c1ccc(Cl)cc1` [Moclobemide], the LC retention time is 8.18 min.

Consider `CC(=O)c1ccc(N)cc1` [4-aminoacetophenone], for which the LC retention time is 2.5 min.

`NC1CCCCC1` [Cyclohexylamine]: the LC retention time is 4.9 min.

On to `Cc1cc(C(C)(C)C)c(O)c(C(C)(C)C)c1` [Dibutylhydroxytoluene], for which the LC retention time was 17 min.
